Test results as given in patent US20160120863A1, “SLC2A TRANSPORTER INHIBITORS” (IOMET PHARMA LTD., priority 2013, published 2016).

Key:
Type in all cases: cell-based
human GLUT2 = biological target: T1, human GLUT2 (Homo sapiens, UniProt P11168); experiment: [3H]-deoxy-D-glucose uptake assay, GLUT2; settings: [3H]-deoxy-D-glucose uptake in HEK293 cells stably expressing human GLUT2
T1 construct: expressed in transfected cells
T1 sequence (P11168 1-524): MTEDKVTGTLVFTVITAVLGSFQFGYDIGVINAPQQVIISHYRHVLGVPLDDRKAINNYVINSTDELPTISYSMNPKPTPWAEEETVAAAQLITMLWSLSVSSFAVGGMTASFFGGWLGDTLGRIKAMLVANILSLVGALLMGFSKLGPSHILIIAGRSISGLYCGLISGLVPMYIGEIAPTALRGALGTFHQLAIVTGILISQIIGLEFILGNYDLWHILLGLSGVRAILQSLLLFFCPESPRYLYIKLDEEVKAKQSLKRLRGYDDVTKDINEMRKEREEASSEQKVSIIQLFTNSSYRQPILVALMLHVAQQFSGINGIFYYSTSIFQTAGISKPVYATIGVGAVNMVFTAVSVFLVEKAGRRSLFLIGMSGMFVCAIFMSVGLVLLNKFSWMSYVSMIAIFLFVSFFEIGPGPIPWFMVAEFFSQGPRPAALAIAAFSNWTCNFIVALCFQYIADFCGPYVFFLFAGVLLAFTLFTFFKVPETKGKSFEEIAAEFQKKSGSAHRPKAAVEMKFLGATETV
Method in brief: (§1)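 HEK293 cells stably overexpressing human GLUT1 or GLUT2, seeded at 60,000 per well, treated with compounds in glucose-free uptake buffer for 30 min at 37 °C. [3H]-deoxy-D-glucose uptake quantified by scintillation counting after ice-cold PBS washes; IC50 determined.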

human GLUT3 = biological target: T2, human GLUT3 (Homo sapiens, UniProt P11169); experiment: [3H]-deoxy-D-glucose uptake assay, GLUT3; settings: [3H]-deoxy-D-glucose uptake in HEK293 cells stably expressing human GLUT3
T2 construct: expressed in transfected cells
T2 sequence (P11169 1-496): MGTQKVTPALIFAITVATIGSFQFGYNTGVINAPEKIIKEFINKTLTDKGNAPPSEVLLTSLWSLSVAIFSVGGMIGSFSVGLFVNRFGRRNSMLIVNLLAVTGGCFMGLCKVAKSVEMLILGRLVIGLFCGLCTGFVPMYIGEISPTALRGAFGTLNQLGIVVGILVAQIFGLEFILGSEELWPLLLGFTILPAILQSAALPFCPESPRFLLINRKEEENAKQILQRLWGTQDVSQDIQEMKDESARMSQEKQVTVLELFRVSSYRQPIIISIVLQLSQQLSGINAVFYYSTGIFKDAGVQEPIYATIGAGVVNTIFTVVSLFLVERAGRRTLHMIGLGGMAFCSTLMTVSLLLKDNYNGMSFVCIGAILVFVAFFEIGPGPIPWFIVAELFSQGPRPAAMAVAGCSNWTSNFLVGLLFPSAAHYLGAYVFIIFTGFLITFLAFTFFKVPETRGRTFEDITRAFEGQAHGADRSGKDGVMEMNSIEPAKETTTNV
Description: (§2) HEK293 cells were engineered to stably express either human GLUT1, GLUT2, GLUt3 or GLUT4 by transfection with the pReceiver-Lv105 plasmid, containing either hGLUT1, hGLUT2, hGLUT3, or hGLUT4 gene constructs with lipofectamine 2000, hGLUT1- hGLUT2- hGLUT3- or hGLUT4-overexpressing polyclonal populations were isolated under purinomycin selective pressure (1 μg/ml) and maintained in Dulbecco's modified Eagle's medium supplemented with 1 μg/ml purinomycin+10% foetal bovine serum (FBS).
(§3) 60,000 cells per well were seeded overnight into poly-D-lysine coasted 96-well plates. Following media removal, cells were washed twice in warm glucose-free uptake buffer (25 mM HEPES/KOH pH 7.4, 125 mM NaCl, 4.8 mM KCl, 1.2 mM MgSO4, 1.2 mM CaCl2, 1.2 mM KH2PO4). 90 μl of test compounds were added in glucose-free uptake buffer and cells were incubated at 37° C. for 30 min. 10 μl of [3H]-deoxy-D-glucose (0.25 μCi, 125 μM final assay concentration) was then added per well in glucose-free uptake buffer and uptake was allowed to proceed at 37° C. for 30 min.
(§4) Cells were then washed twice with ice-cold PBS and 100 μl of Microscint-20 was added per well. Glucose uptake was quantified with a scintillation counter. The half maximal inhibitory concentration (IC50) (a measure of the effectiveness of the test compound in inhibiting glucose uptake) was determined.

human GLUT1 = biological target: T3, human GLUT1 (Homo sapiens, UniProt P11166); experiment: [3H]-deoxy-D-glucose uptake assay, GLUT1; settings: [3H]-deoxy-D-glucose uptake in HEK293 cells stably expressing human GLUT1
T3 construct: expressed in transfected cells
T3 sequence (P11166 1-492): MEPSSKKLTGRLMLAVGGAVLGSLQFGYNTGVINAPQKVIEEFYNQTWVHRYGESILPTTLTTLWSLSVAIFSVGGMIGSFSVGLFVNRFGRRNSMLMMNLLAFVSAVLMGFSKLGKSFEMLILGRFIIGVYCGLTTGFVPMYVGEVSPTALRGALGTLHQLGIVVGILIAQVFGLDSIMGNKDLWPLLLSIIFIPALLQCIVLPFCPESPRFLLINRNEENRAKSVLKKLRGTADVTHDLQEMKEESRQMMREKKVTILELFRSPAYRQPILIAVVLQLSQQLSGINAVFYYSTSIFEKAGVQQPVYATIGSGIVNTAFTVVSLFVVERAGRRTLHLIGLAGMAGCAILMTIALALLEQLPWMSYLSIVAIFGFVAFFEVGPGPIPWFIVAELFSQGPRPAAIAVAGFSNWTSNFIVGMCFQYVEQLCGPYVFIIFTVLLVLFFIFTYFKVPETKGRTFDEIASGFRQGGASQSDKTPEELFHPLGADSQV
Method in brief: as §1

human GLUT4 = biological target: T4, human GLUT4 (Homo sapiens, UniProt P14672); experiment: [3H]-deoxy-D-glucose uptake assay, GLUT4; settings: [3H]-deoxy-D-glucose uptake in HEK293 cells stably expressing human GLUT4
T4 construct: expressed in transfected cells
T4 sequence (P14672 1-509): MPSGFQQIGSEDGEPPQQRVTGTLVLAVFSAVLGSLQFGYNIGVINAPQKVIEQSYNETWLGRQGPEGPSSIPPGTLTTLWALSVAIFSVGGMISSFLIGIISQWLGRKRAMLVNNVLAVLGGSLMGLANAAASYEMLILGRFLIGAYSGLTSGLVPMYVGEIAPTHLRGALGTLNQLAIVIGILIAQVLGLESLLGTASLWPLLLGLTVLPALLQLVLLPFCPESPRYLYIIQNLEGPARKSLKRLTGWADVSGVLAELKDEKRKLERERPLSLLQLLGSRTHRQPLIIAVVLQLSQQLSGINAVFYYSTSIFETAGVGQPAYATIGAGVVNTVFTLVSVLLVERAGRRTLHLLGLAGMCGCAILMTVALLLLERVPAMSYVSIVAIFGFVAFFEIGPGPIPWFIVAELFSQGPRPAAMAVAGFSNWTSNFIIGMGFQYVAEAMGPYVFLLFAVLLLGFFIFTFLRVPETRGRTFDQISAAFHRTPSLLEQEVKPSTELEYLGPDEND
Description: as §2, §3, §4

Row | GLUT2 pIC50 (human GLUT2) | GLUT3 pIC50 (human GLUT3) | GLUT1 pIC50 (human GLUT1) | GLUT4 pIC50 (human GLUT4) | Structure (SMILES)
1 | +++ (pIC50 ≧ 6.00) | +++ (pIC50 ≧ 6.00) | +++ (pIC50 ≧ 6.00) | +++ (pIC50 ≧ 6.00) | CS(=O)(=O)Nc1ccc2nc(-c3ccc(Cl)cc3Cl)c(CN3CCN(C(=O)c4ccnnc4)CC3)n2c1 [Compound 356]
2 | ++ (pIC50 5.00-5.99) | +++ (pIC50 ≧ 6.00) | +++ (pIC50 ≧ 6.00) | +++ (pIC50 ≧ 6.00) | CS(=O)(=O)Nc1ccc2nc(-c3ccc(Cl)cc3Cl)c(CN3CCN(C(=O)c4ccc(F)cc4)CC3)n2c1 [Compound 360]
3 | ++ (pIC50 5.00-5.99) | +++ (pIC50 ≧ 6.00) | +++ (pIC50 ≧ 6.00) | +++ (pIC50 ≧ 6.00) | CC(C)(O)C(=O)N1CCN(Cc2c(-c3ccc(Cl)cc3Cl)nc3ccc(NS(C)(=O)=O)cn23)CC1 [Compound 361]
4 | +++ (pIC50 ≧ 6.00) | +++ (pIC50 ≧ 6.00) | +++ (pIC50 ≧ 6.00) | +++ (pIC50 ≧ 6.00) | CN(c1ccc2nc(-c3ccc(Cl)cc3Cl)c(CN3CCN(C(=O)c4ccc(F)cc4)CC3)n2c1)S(C)(=O)=O [Compound 363]
5 | ++ (pIC50 5.00-5.99) | +++ (pIC50 ≧ 6.00) | +++ (pIC50 ≧ 6.00) | +++ (pIC50 ≧ 6.00) | CC(=O)N1CCN(Cc2c(-c3ccc(Cl)cc3)nc3ccc(N(C(C)C)S(C)(=O)=O)cn23)CC1 [Compound 365]
6 | +++ (pIC50 ≧ 6.00) | +++ (pIC50 ≧ 6.00) | +++ (pIC50 ≧ 6.00) | +++ (pIC50 ≧ 6.00) | CC(C)c1cn2c(CN3CCOCC3)c(-c3ccc(Cl)cc3Cl)nc2cn1 [Compound 366]
7 | +++ (pIC50 ≧ 6.00) | +++ (pIC50 ≧ 6.00) | +++ (pIC50 ≧ 6.00) | +++ (pIC50 ≧ 6.00) | CC(=O)N1CCN(Cc2c(-c3ccc(Cl)cc3Cl)nc3ccc(N(C(F)F)S(C)(=O)=O)cn23)CC1 [Compound 367]
8 | +++ (pIC50 ≧ 6.00) | +++ (pIC50 ≧ 6.00) | +++ (pIC50 ≧ 6.00) | +++ (pIC50 ≧ 6.00) | CC(=O)N1CCN(Cc2c(-c3ccc(Cl)cc3)nc3ccc(N(C(F)F)S(C)(=O)=O)cn23)CC1 [Compound 368]
9 | ++ (pIC50 5.00-5.99) | +++ (pIC50 ≧ 6.00) | +++ (pIC50 ≧ 6.00) | +++ (pIC50 ≧ 6.00) | Cn1cc(C(=O)N2CCN(Cc3c(-c4ccc(Cl)cc4Cl)nc4ccc(NS(C)(=O)=O)cn34)CC2)cn1 [Compound 369]
10 | +++ (pIC50 ≧ 6.00) | +++ (pIC50 ≧ 6.00) | +++ (pIC50 ≧ 6.00) | +++ (pIC50 ≧ 6.00) | CN(c1ccc2nc(-c3ccc(Cl)cc3Cl)c(CN3CCN(C(=O)c4ccnnc4)CC3)n2c1)S(C)(=O)=O [Compound 370]
11 | +++ (pIC50 ≧ 6.00) | +++ (pIC50 ≧ 6.00) | +++ (pIC50 ≧ 6.00) | +++ (pIC50 ≧ 6.00) | CN(c1ccc2nc(-c3ccc(Cl)cc3Cl)c(CN3CCN(C(=O)C4CCOCC4)CC3)n2c1)S(C)(=O)=O [Compound 372]
12 | +++ (pIC50 ≧ 6.00) | +++ (pIC50 ≧ 6.00) | +++ (pIC50 ≧ 6.00) | +++ (pIC50 ≧ 6.00) | CS(=O)(=O)Nc1ccc2nc(-c3ccc(Cl)cc3Cl)c(CN3CCN4C(=O)CCC4C3)n2c1 (stereo not drawn) [Compound 373]
13 | +++ (pIC50 ≧ 6.00) | +++ (pIC50 ≧ 6.00) | +++ (pIC50 ≧ 6.00) | +++ (pIC50 ≧ 6.00) | CN(c1ccc2nc(-c3ccc(Cl)cc3Cl)c(CN3CCN4C(=O)CCC4C3)n2c1)S(C)(=O)=O (stereo not drawn) [Compound 374]
14 | ++ (pIC50 5.00-5.99) | +++ (pIC50 ≧ 6.00) | ++ (pIC50 5.00-5.99) | +++ (pIC50 ≧ 6.00) | CSc1ccc2nc(-c3ccc(Cl)cc3)c(CN3CCN(C(C)=O)CC3)n2c1 [Compound 377]
15 | +− (pIC50 < 4.00) | +++ (pIC50 ≧ 6.00) | +++ (pIC50 ≧ 6.00) | +++ (pIC50 ≧ 6.00) | CC(=O)N1CCN(Cc2c(-c3ccc(Cl)cc3)nc3ccc(S(C)(=O)=O)cn23)CC1 [Compound 378]
16 | ++ (pIC50 5.00-5.99) | +++ (pIC50 ≧ 6.00) | +++ (pIC50 ≧ 6.00) | +++ (pIC50 ≧ 6.00) | CN(c1ccc2nc(-c3ccc(Cl)cc3Cl)c(CN3CCN(C(=O)C(C)(C)O)CC3)n2c1)S(C)(=O)=O [Compound 381]
17 | ++ (pIC50 5.00-5.99) | +++ (pIC50 ≧ 6.00) | +++ (pIC50 ≧ 6.00) | +++ (pIC50 ≧ 6.00) | CC(=O)N1CCN(Cc2c(-c3ccc(Cl)cc3)nc3ccc(S(=O)(=O)C(C)C)cn23)CC1 [Compound 382]
18 | ++ (pIC50 5.00-5.99) | +++ (pIC50 ≧ 6.00) | +++ (pIC50 ≧ 6.00) | +++ (pIC50 ≧ 6.00) | CCS(=O)(=O)c1ccc2nc(-c3ccc(Cl)cc3)c(CN3CCN(C(C)=O)CC3)n2c1 [Compound 385]
